Calls of active or inactive are those of the source. No cut-off for these calls is given here.
Key:
[1] = species on record: Homo sapiens; assay: Inhibition of human DNA topoisomerase 1 at 200 uM
[2] = molecular target: T1, DNA topoisomerase 2-alpha (Homo sapiens, UniProt P11388); assay: Inhibition of human DNA topoisomerase 2alpha at 200 uM
[3] = molecular target: T1, DNA topoisomerase 2-alpha; assay: Inhibition of human DNA topoisomerase 2alpha

T1 sequence (P11388 whole entry): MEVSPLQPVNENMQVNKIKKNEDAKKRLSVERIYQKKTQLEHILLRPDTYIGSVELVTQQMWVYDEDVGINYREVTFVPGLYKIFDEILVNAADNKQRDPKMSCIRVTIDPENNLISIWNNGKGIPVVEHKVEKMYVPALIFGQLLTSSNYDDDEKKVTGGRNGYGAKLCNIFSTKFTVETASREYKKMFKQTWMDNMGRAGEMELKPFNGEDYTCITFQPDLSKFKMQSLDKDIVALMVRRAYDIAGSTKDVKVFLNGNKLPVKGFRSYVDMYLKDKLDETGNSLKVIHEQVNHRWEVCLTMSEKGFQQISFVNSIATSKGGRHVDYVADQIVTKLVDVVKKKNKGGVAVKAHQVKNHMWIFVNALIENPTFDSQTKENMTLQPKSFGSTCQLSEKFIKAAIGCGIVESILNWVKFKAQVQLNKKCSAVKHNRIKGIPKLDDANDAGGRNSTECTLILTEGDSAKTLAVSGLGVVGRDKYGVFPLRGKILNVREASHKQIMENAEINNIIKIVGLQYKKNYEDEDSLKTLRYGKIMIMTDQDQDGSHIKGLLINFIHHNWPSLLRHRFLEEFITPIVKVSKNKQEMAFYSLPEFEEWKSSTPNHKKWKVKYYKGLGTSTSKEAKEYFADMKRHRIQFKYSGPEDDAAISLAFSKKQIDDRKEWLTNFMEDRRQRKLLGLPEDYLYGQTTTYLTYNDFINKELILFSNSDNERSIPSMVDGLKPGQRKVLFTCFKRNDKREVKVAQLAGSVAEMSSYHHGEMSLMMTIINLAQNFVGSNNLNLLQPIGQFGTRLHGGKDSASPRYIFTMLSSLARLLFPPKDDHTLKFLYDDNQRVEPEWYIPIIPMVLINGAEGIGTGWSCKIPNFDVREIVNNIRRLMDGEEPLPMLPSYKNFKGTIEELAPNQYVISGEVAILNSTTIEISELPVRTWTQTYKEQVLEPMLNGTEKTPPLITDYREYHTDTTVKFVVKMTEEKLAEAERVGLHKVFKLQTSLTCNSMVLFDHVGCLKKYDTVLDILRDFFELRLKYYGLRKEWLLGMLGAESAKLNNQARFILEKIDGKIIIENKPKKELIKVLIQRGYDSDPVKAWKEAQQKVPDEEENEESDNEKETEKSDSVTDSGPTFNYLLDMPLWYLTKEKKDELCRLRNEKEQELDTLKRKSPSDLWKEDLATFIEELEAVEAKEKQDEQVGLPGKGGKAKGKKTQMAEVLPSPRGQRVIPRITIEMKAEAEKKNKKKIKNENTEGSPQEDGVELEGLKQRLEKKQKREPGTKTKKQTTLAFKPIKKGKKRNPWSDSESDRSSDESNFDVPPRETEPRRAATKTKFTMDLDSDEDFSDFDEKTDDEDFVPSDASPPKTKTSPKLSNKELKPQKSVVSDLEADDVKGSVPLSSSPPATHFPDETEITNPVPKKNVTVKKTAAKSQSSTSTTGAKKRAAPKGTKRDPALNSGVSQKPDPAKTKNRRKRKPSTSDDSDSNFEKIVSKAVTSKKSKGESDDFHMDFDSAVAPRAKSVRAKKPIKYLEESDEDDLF

| Compound | Activity [1] | inhibition [2] [%] | Activity [3] | IC50 [3] [µM] | Activity [2] |
| --- | --- | --- | --- | --- | --- |
| C=C(C)[C@@H]1CC=C2[C@@H](CC[C@]3(C)[C@@H]([C@H](C)CC(=O)C[C@@H](C)C(=O)O)CC[C@@]23C)[C@@]1(C)CCC(=O)O | inactive | 4 | – | – | – |
| C=C(C)[C@@H]1CC=C2[C@@H](CC[C@]3(C)[C@@H]([C@H](C)C[C@H](O)C[C@@H](C)CO)CC[C@@]23C)[C@@]1(C)CCCO | inactive | – | Dose-dependent effect | 50.4 | Active |
| C=C(C)[C@@H]1CC=C2[C@@H](CC[C@]3(C)[C@@H]([C@H](C)CC(=O)C[C@@H](C)C(=O)OC)CC[C@@]23C)[C@@]1(C)CCC(=O)OC | inactive | – | Dose-dependent effect | 67.3 | Active |
| C=C(C)[C@@H]1CC=C2[C@@H](CC[C@]3(C)[C@@H]([C@H](C)C[C@@H]4C[C@@H](C)C(=O)O4)CC[C@@]23C)[C@@]1(C)CCC(=O)O | inactive | – | Dose-dependent effect | 42.6 | Active |
| C=C(C)[C@@H]1CC=C2[C@@H](CC[C@]3(C)[C@@H]([C@H](C)C[C@@H]4C[C@@H](C)C(=O)O4)CC[C@@]23C)[C@@]1(C)CCC(=O)OC | inactive | – | Dose-dependent effect | 75.7 | Active |

Reference: ChEMBL document CHEMBL1150134, “Triterpenoid constituents isolated from the bark of Abies sachalinensis” (J Nat Prod, 2002)
